Results as given in PubChem BioAssay AID588807 (The Scripps Research Institute Molecular Screening Center, 2011).
Active and inactive are the calls of the source. No rule for the calls is given here.

Assays:
Assay in all cases: competitive ABPP of Abhd10 versus anti-targets – biochemical, fluorescence, gel-based, mouse proteome, selectivity assay for PME-1 inhibitor project, late-stage follow-up (AID 588807)
APEH = settings: anti-target, stronger effect = higher value
Kiaa1363 = settings: anti-target, stronger effect = higher value
Magl = settings: anti-target, stronger effect = higher value
[1] = target: Monoacylglycerol lipase ABHD6 (Mus musculus) (UniProt Q8R2Y0); settings: anti-target, stronger effect = higher value
Monoacylglycerol lipase ABHD6 (Mus musculus), sequence (Q8R2Y0 whole entry, looked up): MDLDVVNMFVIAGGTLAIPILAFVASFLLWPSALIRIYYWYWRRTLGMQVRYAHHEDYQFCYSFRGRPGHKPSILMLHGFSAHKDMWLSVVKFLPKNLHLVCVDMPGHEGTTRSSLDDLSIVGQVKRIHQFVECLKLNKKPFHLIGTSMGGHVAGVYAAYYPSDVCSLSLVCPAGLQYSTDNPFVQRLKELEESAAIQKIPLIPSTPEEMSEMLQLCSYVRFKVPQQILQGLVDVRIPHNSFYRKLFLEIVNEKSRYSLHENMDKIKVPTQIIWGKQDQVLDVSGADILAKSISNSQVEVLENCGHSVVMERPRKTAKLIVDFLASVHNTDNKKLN

[2] = target: Palmitoyl-protein thioesterase ABHD10, mitochondrial (Mus musculus) (UniProt Q6PE15); settings: stronger effect = higher value
Palmitoyl-protein thioesterase ABHD10, mitochondrial (Mus musculus), sequence (Q6PE15 whole entry, looked up): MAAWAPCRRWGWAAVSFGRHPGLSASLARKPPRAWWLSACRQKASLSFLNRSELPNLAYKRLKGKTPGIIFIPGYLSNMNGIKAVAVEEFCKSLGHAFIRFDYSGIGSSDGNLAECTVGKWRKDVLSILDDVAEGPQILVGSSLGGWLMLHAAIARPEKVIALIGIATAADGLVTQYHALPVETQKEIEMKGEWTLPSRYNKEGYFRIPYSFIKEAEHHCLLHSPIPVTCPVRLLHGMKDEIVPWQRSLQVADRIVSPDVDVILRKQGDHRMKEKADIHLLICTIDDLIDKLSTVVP

[3] = target: Prolyl endopeptidase (Mus musculus) (UniProt Q9QUR6); settings: PREP, anti-target, stronger effect = higher value
Prolyl endopeptidase (Mus musculus), sequence (Q9QUR6 whole entry, looked up): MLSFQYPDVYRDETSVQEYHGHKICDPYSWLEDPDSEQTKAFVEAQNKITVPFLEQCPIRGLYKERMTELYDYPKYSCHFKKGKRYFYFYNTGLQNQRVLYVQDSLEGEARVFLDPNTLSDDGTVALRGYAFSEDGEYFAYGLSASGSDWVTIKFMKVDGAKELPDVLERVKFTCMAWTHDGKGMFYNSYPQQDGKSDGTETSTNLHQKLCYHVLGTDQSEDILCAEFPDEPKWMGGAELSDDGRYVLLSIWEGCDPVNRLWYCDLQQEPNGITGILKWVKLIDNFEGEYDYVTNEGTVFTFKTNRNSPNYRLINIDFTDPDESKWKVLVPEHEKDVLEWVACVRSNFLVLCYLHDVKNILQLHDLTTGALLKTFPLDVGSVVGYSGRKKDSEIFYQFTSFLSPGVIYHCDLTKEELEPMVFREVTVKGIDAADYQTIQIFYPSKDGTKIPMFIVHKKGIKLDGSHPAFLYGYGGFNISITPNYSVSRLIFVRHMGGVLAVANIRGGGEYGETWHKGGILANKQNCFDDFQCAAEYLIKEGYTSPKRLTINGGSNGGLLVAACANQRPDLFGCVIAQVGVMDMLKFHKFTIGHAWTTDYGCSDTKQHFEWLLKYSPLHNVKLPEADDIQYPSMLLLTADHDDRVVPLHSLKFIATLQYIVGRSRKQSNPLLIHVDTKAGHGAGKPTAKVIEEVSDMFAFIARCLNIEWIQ

Structure (SMILES) | inhibition (APEH; at 10 µM) | inhibition (Kiaa1363; at 10 µM) | inhibition (Magl; at 10 µM) | inhibition ([1]; at 10 µM) | inhibition ([2]; at 10 µM) | inhibition ([2]; inhibition, at 0.1 µM) [%] | inhibition ([2]; inhibition, at 1 µM) [%] | inhibition ([3]; at 10 µM) | inhibition ([3]; inhibition, at 0.1 µM) [%] | inhibition ([3]; inhibition, at 1 µM) [%] | inhibition (Magl; inhibition, at 0.1 µM) [%] | inhibition ([1]; inhibition, at 0.1 µM) [%] | inhibition ([1]; inhibition, at 1 µM) [%] | inhibition (APEH; inhibition, at 1 µM) [%] | inhibition (Kiaa1363; inhibition, at 1 µM) [%]
CCOC(=O)N1C(=O)[C@@](CC)(c2cccc(C)c2)N1C(=O)OCC | 70% (inactive) | 25% (inactive) | 45% (inactive) | 65% (inactive) | 100% | 75 | 100 | 100% (inactive) | 20 | 45 |  |  |  |  | 
CC[C@@]1(c2ccccc2C)C(=O)N(C(=O)OC)N1C(=O)OC | 55% (inactive) | 25% (inactive) | 10% (inactive) | 40% (inactive) | 90% (inactive) | 20 | 15 | 70% (inactive) | 20 |  | 10 |  |  |  | 
CC[C@@]1(c2ccc(Cl)cc2)C(=O)N(C(=O)OC)N1C(=O)OC | 45% (inactive) | 25% (inactive) | 45% (inactive) | 50% (inactive) | 100% | 60 | 100 | 50% (inactive) |  |  |  |  |  |  | 
CC[C@@]1(c2ccccc2)C(=O)N(C(=O)OC)N1C(=O)OC | 0% (inactive) | 0% (inactive) | 0% (inactive) | 0% (inactive) | 10% (inactive) |  |  | 0% (inactive) |  |  |  |  |  |  | 
CCC[C@@]1(c2cccc(C)c2)C(=O)N(C(=O)OC)N1C(=O)OC | 0% (inactive) | 0% (inactive) | 0% (inactive) | 0% (inactive) | 10% (inactive) |  |  | 0% (inactive) |  |  |  |  |  |  | 
CC[C@@]1(c2cccc(C)c2)C(=O)N(C(=O)OC(C)(C)C)N1C(=O)OC(C)(C)C | 0% (inactive) | 0% (inactive) | 0% (inactive) | 10% (inactive) | 70% (inactive) |  | 10 | 0% (inactive) |  |  |  |  |  |  | 
CC[C@@]1(c2cccc(C)c2)C(=O)N(C(=O)OC)N1C(=O)OC(C)C | 20% (inactive) | 0% (inactive) | 0% (inactive) | 75% (inactive) | 100% (inactive) | 20 | 95 | 70% (inactive) | 20 | 35 |  |  |  |  | 
CC[C@@]1(c2cccc(OC)c2)C(=O)N(C(=O)OC(C)C)N1C(=O)OC(C)C | 0% (inactive) | 0% (inactive) | 0% (inactive) | 25% (inactive) | 95% (inactive) | 40 | 90 | 0% (inactive) |  |  |  |  |  |  | 
CCCOC(=O)N1C(=O)[C@@](CC)(c2ccc(C)cc2)N1C(=O)OCCC | 0% (inactive) | 25% (inactive) | 80% (inactive) | 85% (inactive) | 95% | 95 | 95 | 65% (inactive) |  | 25 |  | 10 | 25 |  | 
CC[C@@]1(c2cccc(Cl)c2)C(=O)N(C(=O)OC(C)C)N1C(=O)OC(C)C | 65% (inactive) | 75% (inactive) | 45% (inactive) | 70% (inactive) | 100% (inactive) | 40 | 100 | 95% (inactive) |  | 50 |  | 15 | 20 | 30 | 25
COC(=O)N1C(=O)[C@](c2ccccc2)(C2CCCC2)N1C(=O)OC | 85% (inactive) | 0% (inactive) | 0% (inactive) | 0% (inactive) | 0% (inactive) |  |  | 0% (inactive) |  |  |  |  |  |  | 
C=CCOC(=O)N1N(C(=O)OC)C(=O)[C@@]1(CC)c1ccccc1 | 0% (inactive) | 55% (inactive) | 20% (inactive) | 60% (inactive) | 90% (inactive) | 10 | 60 | 55% (inactive) | 10 | 25 |  |  |  |  | 
CCOC(=O)N1C(=O)[C@@](C)(c2cccc(C)c2)N1C(=O)OCC | 45% (inactive) | 0% (inactive) | 0% (inactive) | 0% (inactive) | 100% | 60 | 80 | 0% (inactive) |  |  |  |  |  |  | 
CC[C@@]1(c2ccc(OC)cc2)C(=O)N(C(=O)OC(C)C)N1C(=O)OC(C)C | 70% (inactive) | 40% (inactive) | 10% (inactive) | 10% (inactive) | 100% (inactive) |  | 95 | 30% (inactive) |  |  |  |  |  |  | 
CC[C@@]1(c2cccc(Cl)c2)C(=O)N(C(=O)OC)N1C(=O)OC | 90% (inactive) | 20% (inactive) | 10% (inactive) | 65% (inactive) | 95% (inactive) | 45 | 90 | 90% (inactive) |  |  |  |  |  |  | 
C=CCOC(=O)N1C(=O)[C@@](CC)(c2ccc(C)cc2)N1C(=O)OCC=C | 0% (inactive) | 10% (inactive) | 50% (inactive) | 75% (inactive) | 90% | 80 | 90 | 40% (inactive) |  | 15 |  |  |  |  | 
CC[C@]1(c2cccc(C)c2)C(=O)N(C(=O)OC)N1C(=O)OC | 0% (inactive) | 0% (inactive) | 0% (inactive) | 0% (inactive) | 85% (inactive) |  | 20 | 0% (inactive) |  |  |  |  |  |  | 
CC[C@@]1(c2ccc(Cl)c(Cl)c2)C(=O)N(C(=O)OC)N1C(=O)OC | 55% (inactive) | 0% (inactive) | 10% (inactive) | 0% (inactive) | 90% (inactive) | 20 | 70 | 25% (inactive) |  |  |  |  |  |  | 
CC[C@]1(c2ccc(C)cc2)C(=O)N(C(=O)OC(C)C)N1C(=O)OC(C)C | 100% (inactive) | 0% (inactive) | 0% (inactive) | 0% (inactive) | 45% (inactive) |  |  | 0% (inactive) |  |  |  |  |  | 30 | 
CC[C@@]1(c2ccc(OC)cc2)C(=O)N(C(=O)OC)N1C(=O)OC | 95% (inactive) | 0% (inactive) | 10% (inactive) | 10% (inactive) | 100% (inactive) |  | 70 | 40% (inactive) |  |  |  |  |  | 95 | 
CC[C@@]1(c2cccc(OC)c2)C(=O)N(C(=O)OC)N1C(=O)OC | 0% (inactive) | 0% (inactive) | 0% (inactive) | 0% (inactive) | 90% (inactive) |  | 65 | 0% (inactive) |  |  |  |  |  |  | 
CC[C@@]1(c2ccc(C)cc2)C(=O)N(C(=O)OC)N1C(=O)OC | 20% (inactive) | 15% (inactive) | 10% (inactive) | 25% (inactive) | 100% | 55 | 95 | 50% (inactive) |  | 20 |  |  |  |  | 
C=CCOC(=O)N1N(C(=O)OC)C(=O)[C@@]1(CC)c1cccc(C)c1 | 75% (inactive) | 25% (inactive) | 10% (inactive) | 50% (inactive) | 90% (inactive) | 10 | 75 | 70% (inactive) |  |  |  |  |  |  | 
C=CCOC(=O)N1C(=O)[C@@](CC)(c2cccc(C)c2)N1C(=O)OC | 55% (inactive) | 35% (inactive) | 20% (inactive) | 45% (inactive) | 100% (inactive) | 10 | 95 | 65% (inactive) |  | 20 |  |  |  |  | 
CC[C@@]1(c2ccc(Cl)c(Cl)c2)C(=O)N(C(=O)OC(C)C)N1C(=O)OC(C)C | 50% (inactive) | 0% (inactive) | 25% (inactive) | 50% (inactive) | 90% (inactive) | 25 | 90 | 80% (inactive) |  |  |  |  |  |  | 
CC[C@]1(c2cccc(C)c2)C(=O)N(C(=O)OC(C)C)N1C(=O)OC(C)C | 0% (inactive) | 0% (inactive) | 0% (inactive) | 10% (inactive) | 85% (inactive) | 30 | 30 | 0% (inactive) |  |  |  |  |  |  | 
